± gives the standard deviation of the averaged measurements.
Columns and labels:
[1] = compound: COc1cc2c(Oc3ccc(NC(=O)C4(C(=O)Nc5ccc(F)cc5)CC4)cc3F)ccnc2cc1OCCCN1CCOCC1 [FORETINIB]; assay: surviving fraction relative to DMSO-only wells; higher = less growth inhibition; conditions: exposure time: 5 days
Procedure, shortened: (§1)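 Luminescence normalised to the median of DMSO-only wells defines surviving fraction, with viability read by CellTiter-Glo. Signal was recorded after 10 minutes at room temperature, once log-phase tumour cell lines seeded at 250–500 cells per well in 384-well plates had spent 24 hours settling and then five days under continuous exposure to inhibitors at 0.5, 1, 5, 10, 50, 100, 500 and 1000 nM.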

[2] = compound: C[C@@H](Oc1cc(-c2cnn(C3CCNCC3)c2)cnc1N)c1c(Cl)ccc(F)c1Cl [CRIZOTINIB]; assay: as above; conditions: exposure time: 5 days
Procedure, shortened: as §1

Test System	surviving fraction ([1]; 0.5 nM)	surviving fraction ([1]; 1 nM)	surviving fraction ([1]; 5 nM)	surviving fraction ([1]; 10 nM)	surviving fraction ([1]; 50 nM)	surviving fraction ([1]; 100 nM)	surviving fraction ([1]; 500 nM)	surviving fraction ([1]; 1000 nM)	surviving fraction ([2]; 0.5 nM)	surviving fraction ([2]; 1 nM)	surviving fraction ([2]; 5 nM)	surviving fraction ([2]; 10 nM)	surviving fraction ([2]; 1000 nM)	surviving fraction ([2]; 50 nM)	surviving fraction ([2]; 100 nM)	surviving fraction ([2]; 500 nM)
HUO3N1 BONE	1 ± 0.035	0.992 ± 0.079	1.06 ± 0.059	1.01 ± 0.039	0.903 ± 0.04	0.819 ± 0.006	0.619 ± 0.02	0.412 ± 0.025	1.03 ± 0.016	1.02 ± 0.049	1.117 ± 0.0087	1.07 ± 0.083	0.787 ± 0.061	–	–	–
JIMT1 BREAST	0.991 ± 0.015	0.978 ± 0.032	1.03 ± 0.058	1.03 ± 0.031	1 ± 0.041	1.01 ± 0.11	0.62 ± 0.033	0.484 ± 0.087	1.01 ± 0.029	1.01 ± 0.029	1.03 ± 0.012	1 ± 0.032	0.538 ± 0.022	1.07 ± 0.045	1.08 ± 0.036	0.833 ± 0.044
JURKAT HAEMATOPOIETIC AND LYMPHOID TISSUE	1 ± 0.034	0.979 ± 0.036	1.02 ± 0.031	0.971 ± 0.023	0.923 ± 0.019	0.976 ± 0.039	0.61 ± 0.021	0.601 ± 0.03	1.04 ± 0.011	–	–	0.96 ± 0.035	0.306 ± 0.011	–	0.928 ± 0.028	0.212 ± 0.0087
KPD BONE	1.05 ± 0.059	1.03 ± 0.029	1.09 ± 0.03	1.11 ± 0.026	1.07 ± 0.04	1.04 ± 0.018	0.63 ± 0.037	0.303 ± 0.028	0.936 ± 0.05	1.01 ± 0.038	–	1.16 ± 0.03	0.245 ± 0.011	–	–	–
LM7 BONE	1.02 ± 0.028	1.04 ± 0.06	1.05 ± 0.016	1.02 ± 0.011	0.997 ± 0.015	1.03 ± 0.058	0.725 ± 0.042	0.216 ± 0.013	–	1.01 ± 0.043	1.07 ± 0.067	–	0.221 ± 0.0062	1.04 ± 0.051	1.12 ± 0.07	0.591 ± 0.046
LNCAP PROSTATE	1.04 ± 0.022	1.02 ± 0.046	0.968 ± 0.075	1.01 ± 0.1	0.997 ± 0.074	1.04 ± 0.039	0.261 ± 0.03	0.189 ± 0.028	1.01 ± 0.15	–	–	0.924 ± 0.094	0.425 ± 0.065	0.872 ± 0.061	0.904 ± 0.12	0.653 ± 0.063

From the supplement of paper PMC6045584
